Assay results published in US20050101595A1, “N-containing cycloalkyl-substituted amino-thiazole derivatives and pharmaceutical compositions for inhibiting cell proliferation and methods for their use” (PFIZER INC., priority 2003, published 2005).
Where a name gives a salt, the structure may show the parent alone. Read-outs that look alike come from different tables or passages of the source.

Assays:
[1] = target: human CDK4 and genetically truncated (1-264) cyclin D3 (Homo sapiens, UniProt P11802); assay: Inhibition of CDK4/Cyclin D Retinoblastoma Kinase Activity; assay type: biochemical; settings: for Ki: apparent Ki, CDK4/truncated cyclin D3, Rb fragment substrate, 25 μM ATP
How it was run: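 Human CDK4/truncated cyclin D3 (1-264) complex from baculovirus-infected insect cells, 5 nM, phosphorylating Rb fragment (residues 386-928, His-tagged) with 25 μM [32/33P]ATP in HEPES pH 7.4, MgCl2, 2% DMSO at 30° C. for 20 min (60 min for tight binders). Filter-captured radioactivity by phosphorimager; apparent Ki from competitive or tight-binding fits.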

HCT-116 cell line = assay: Inhibition of cell growth, tetrazolium salt (MTT) assay; assay type: cell-based; settings: for HCT-116 % Inhibition at 0.25 μM: 0.25 μM compound; for IC50: Homo sapiens, HCT-116, 120 h, MTT, three to five days, read-out: HCT-116 IC50
How it was run: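 First, cells were seeded in McCoy's 5A medium and held 4 h. Next, inhibitor concentrations in 0.5% (v/v) DMSO were applied for three to five days at 37° C, 5% CO2. Finally, after 4 h with 0.2 mg/mL MTT and medium removal, solubilized formazan was measured at 540 nm.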

CDK2/Cyclin A = CDK2/Cyclin A (Homo sapiens, UniProt P24941); assay: Inhibition of CDK2/Cyclin A Retinoblastoma Kinase Activity; assay type: biochemical; settings: for Ki: apparent Ki, CDK2/proteolyzed cyclin A, Rb fragment substrate, 25 μM ATP; for CDK2 % Inhibition At 0.03 μM: Table 2
How it was run: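 Baculovirus-expressed CDK2 complexed with proteolyzed cyclin A (10 or 19 nM), Rb fragment substrate, 25 μM [32P/33P]ATP, HEPES pH 7.4, 30 °C for 60 or 75 min under initial-rate conditions. Filter capture and phosphorimager readout; apparent Ki fitted to competitive or tight-binding competitive inhibition.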

[2] = 0.1 μM compound, HCT-116, Table 4
[3] = 0.1 μM compound, HCT-116, Table 3

Sequence of human CDK4 and genetically truncated (1-264) cyclin D3 (P11802 whole entry, the tested form may be a part): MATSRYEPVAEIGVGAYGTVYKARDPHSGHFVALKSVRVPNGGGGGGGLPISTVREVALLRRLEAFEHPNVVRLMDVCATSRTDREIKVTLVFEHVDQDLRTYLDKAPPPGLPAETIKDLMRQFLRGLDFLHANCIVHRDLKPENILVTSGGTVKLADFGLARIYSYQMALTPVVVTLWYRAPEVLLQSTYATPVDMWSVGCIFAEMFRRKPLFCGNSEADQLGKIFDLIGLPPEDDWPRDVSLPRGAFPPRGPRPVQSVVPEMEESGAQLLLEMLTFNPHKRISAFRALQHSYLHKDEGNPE
Sequence of human CDK4 and genetically truncated (1-264) cyclin D3 (P30281 1-264 partner): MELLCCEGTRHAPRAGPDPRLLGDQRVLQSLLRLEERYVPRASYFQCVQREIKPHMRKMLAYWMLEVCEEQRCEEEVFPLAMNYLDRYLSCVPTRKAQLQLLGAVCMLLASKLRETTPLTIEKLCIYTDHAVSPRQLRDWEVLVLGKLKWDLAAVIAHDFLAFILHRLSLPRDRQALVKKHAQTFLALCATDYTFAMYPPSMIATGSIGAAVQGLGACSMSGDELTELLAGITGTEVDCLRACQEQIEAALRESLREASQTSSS

CC(C)=CC(=O)N1CCC(Nc2nc(N)c(C(=O)c3c(F)cccc3F)s2)CC1 [Example Q44]
CDK4 % Inhibition at 0.03 μM ([1]; 0.03 μM compound, Table 4): 17% | HCT-116 % Inhibition at 0.1 μM (HCT-116 cell line; [2]): 0% | HCT-116 % Inhibition at 0.25 μM (HCT-116 cell line; HCT-116, Table 4): 30% | CDK2 % Inhibition at 0.03 μM (CDK2/Cyclin A; 0.03 μM compound, Table 4): −19%

CC1CCCC(NCCS(=O)(=O)N2CCC(Nc3nc(N)c(C(=O)c4c(F)cccc4F)s3)CC2)C1 (mixture of isomers) [Example K43, (4-Amino-2-{1-[2-(3(cis/trans)-methyl-cyclohexylamino)-ethanesulfonyl]-piperidin-4-ylamino}-thiazol-5-yl)-(2,6-difluoro-phenyl)-methanone]
Ki [1]: 2.4 nM | IC50 (HCT-116 cell line; first HCT-116 column (c4)): 51 nM | IC50 (HCT-116 cell line; second HCT-116 column (c5)): 300 nM | Ki (CDK2/Cyclin A): 0.57 nM

Nc1nc(NC2CCN(C(=O)c3ccc(Cl)nc3)CC2)sc1C(=O)c1c(F)cccc1F [Example R20]
CDK4 % Inhibition at 0.03 μM ([1]; at 0.03 μM): 85% | HCT-116 % Inhibition at 0.1 μM (HCT-116 cell line; HCT-116 cells, at 0.1 μM): 0% | HCT-116 5 Inhibition at 0.25 μM (HCT-116 cell line; HCT-116 cells): 42 | CDK2 % Inhibition at 0.03 μM (CDK2/Cyclin A; at 0.03 μM): 59%

COC(C(=O)N1CCC(Nc2nc(N)c(C(=O)c3c(F)cccc3F)s2)CC1)(c1ccccc1)C(F)(F)F (centres unmarked) [Example R39]
CDK4 % Inhibition at 0.03 μM ([1]; at 0.03 μM): 16% | HCT-116 % Inhibition at 0.1 μM (HCT-116 cell line; HCT-116 cells, at 0.1 μM): 5% | HCT-116 5 Inhibition at 0.25 μM (HCT-116 cell line; HCT-116 cells): 51 | CDK2 % Inhibition at 0.03 μM (CDK2/Cyclin A; at 0.03 μM): −6%

Nc1nc(NC2CCN(S(=O)(=O)CCc3cccc4ccccc34)CC2)sc1C(=O)c1c(F)cccc1F [Example P76]
CDK4 % Inhibition at 0.03 μM ([1]; 0.03 μM compound, Table 3): 33% | HCT-116 % Inhibition at 0.1 μM (HCT-116 cell line; [3]): 23% | CDK2 % Inhibition at 0.03 μM (CDK2/Cyclin A; 0.03 μM compound, Table 3): 9%

Nc1nc(NC2CCN(S(=O)(=O)CCN3CC=CCC3)CC2)sc1C(=O)c1c(F)cccc1F [Example K32, (4-Amino-2-{1-[2-(3,6-dihydro-2H-pyridin-1-yl)-ethanesulfonyl]-piperidin-4-ylamino}-thiazol-5-yl)-(2,6-difluoro-phenyl)-methanone Trifluoroacetic Acid Salt.]
Ki [1]: 2.1 nM | IC50 (HCT-116 cell line; first HCT-116 column (c4)): 190 nM | IC50 (HCT-116 cell line; second HCT-116 column (c5)): 1400 nM | Ki (CDK2/Cyclin A): 6.2 nM

Cc1nccn1-c1ccc(S(=O)(=O)N2CCC(Nc3nc(N)c(C(=O)c4c(F)cccc4F)s3)CC2)cn1 [Example G26, 1-(4-Amino-2-{1-[6-(2-methyl-imidazol-1-yl)-pyridine-3-sulfonyl]-piperidin-4-ylamino}-thiazol-5-yl)-1-(2,6-difluoro-phenyl)-methanone]
Ki [1]: 1.3 nM | IC50 (HCT-116 cell line; first HCT-116 column (c4)): 140 nM | IC50 (HCT-116 cell line; second HCT-116 column (c5)): 220 nM | Ki (CDK2/Cyclin A): 0.64 nM

CCOC(=O)CC(=O)N1CCC(Nc2nc(N)c(C(=O)c3c(F)cccc3F)s2)CC1 [Example Q47]
CDK4 % Inhibition at 0.03 μM ([1]; 0.03 μM compound, Table 4): 9% | HCT-116 % Inhibition at 0.1 μM (HCT-116 cell line; [2]): 0% | HCT-116 % Inhibition at 0.25 μM (HCT-116 cell line; HCT-116, Table 4): 25% | CDK2 % Inhibition at 0.03 μM (CDK2/Cyclin A; 0.03 μM compound, Table 4): −13%

Nc1nc(NC2CCN(C(=O)c3cccc4c3-c3ccccc3C4=O)CC2)sc1C(=O)c1c(F)cccc1F [Example Q74]
CDK4 % Inhibition at 0.03 μM ([1]; 0.03 μM compound, Table 4): 19% | HCT-116 % Inhibition at 0.1 μM (HCT-116 cell line; [2]): 3% | HCT-116 % Inhibition at 0.25 μM (HCT-116 cell line; HCT-116, Table 4): 35% | CDK2 % Inhibition at 0.03 μM (CDK2/Cyclin A; 0.03 μM compound, Table 4): 2%

CC(C)NC(=O)N1CCC(Nc2nc(N)c(C(=O)c3c(F)cccc3F)s2)CC1 [Example O29]
CDK4 % Inhibition at 0.03 μM ([1]; 0.03 μM compound, Table 2): 10% | HCT-116 % Inhibition at 0.25 μM (HCT-116 cell line; HCT-116, Table 2): 33% | CDK2 % Inhibition At 0.03 μM (CDK2/Cyclin A; 0.03 μM compound): 30%

Nc1nc(NC2CCN(C(=O)Cc3ccccc3)CC2)sc1C(=O)c1c(F)cccc1F [Example Q43]
CDK4 % Inhibition at 0.03 μM ([1]; 0.03 μM compound, Table 4): 30% | HCT-116 % Inhibition at 0.1 μM (HCT-116 cell line; [2]): 0% | HCT-116 % Inhibition at 0.25 μM (HCT-116 cell line; HCT-116, Table 4): 24% | CDK2 % Inhibition at 0.03 μM (CDK2/Cyclin A; 0.03 μM compound, Table 4): 16%

Nc1nc(NC2CCN(S(=O)(=O)CCCN3CCc4ccccc4C3)CC2)sc1C(=O)c1c(F)cccc1F [Example K5, 1-(4-Amino-2-{1-[3-(3,4-dihydro-1H-isoquinolin-2-yl)propane-1-sulfonyl]-piperidin-4-ylamino}-thiazol-5-yl)-1-(2,6-difluoro-phenyl)-methanone.]
Ki [1]: 1.5 nM | IC50 (HCT-116 cell line; first HCT-116 column (c4)): 140 nM | IC50 (HCT-116 cell line; second HCT-116 column (c5)): 580 nM | Ki (CDK2/Cyclin A): 1 nM

COc1ccc(C)cc1S(=O)(=O)N1CCC(Nc2nc(N)c(C(=O)c3c(F)cccc3F)s2)CC1 [Example P59]
CDK4 % Inhibition at 0.03 μM ([1]; 0.03 μM compound, Table 3): 33% | HCT-116 % Inhibition at 0.1 μM (HCT-116 cell line; [3]): 19% | HCT-116 % Inhibition at 0.25 μM (HCT-116 cell line; HCT-116, Table 3): 24% | CDK2 % Inhibition at 0.03 μM (CDK2/Cyclin A; 0.03 μM compound, Table 3): 17%

COc1ccc(C)cc1NC(=O)N1CCC(Nc2nc(N)c(C(=O)c3c(F)cccc3F)s2)CC1 [Example O50]
CDK4 % Inhibition at 0.03 μM ([1]; 0.03 μM compound, Table 2): 13% | HCT-116 % Inhibition at 0.25 μM (HCT-116 cell line; HCT-116, Table 2): 62% | CDK2 % Inhibition At 0.03 μM (CDK2/Cyclin A; 0.03 μM compound): 37%

Nc1nc(NC2CCN(S(=O)(=O)c3cccc([N+](=O)[O-])c3)CC2)sc1C(=O)c1c(F)cccc1F [Example P11]
CDK4 % Inhibition at 0.03 μM ([1]; 0.03 μM compound, Table 3): 22% | HCT-116 % Inhibition at 0.1 μM (HCT-116 cell line; [3]): 19% | HCT-116 % Inhibition at 0.25 μM (HCT-116 cell line; HCT-116, Table 3): 27% | CDK2 % Inhibition at 0.03 μM (CDK2/Cyclin A; 0.03 μM compound, Table 3): −23%

Nc1nc(NC2CCN(C(=O)c3ccc(Br)cc3)CC2)sc1C(=O)c1c(F)cccc1F [Example D11]
Ki [1]: 31 nM | IC50 (HCT-116 cell line; first HCT-116 column (c4)): 720 nM | IC50 (HCT-116 cell line; second HCT-116 column (c5)): 1800 nM | Ki (CDK2/Cyclin A): 81 nM

Nc1nc(NC2CCN(S(=O)(=O)c3ccc(N4CCC[C@@H]4CO)nc3)CC2)sc1C(=O)c1c(F)cccc1F [Example G13, 1-{4-Amino-2-{1-[6-(2R-hydroxymethyl-pyrrolidin-1-yl)-pyridine-3-sulfonyl]-piperidin-4-ylamino}-thiazol-5-yl)-1-(2,6-difluoro-phenyl)-methanone Trifluoroacetic Acid Salt]
Ki [1]: 0.64 nM | IC50 (HCT-116 cell line; first HCT-116 column (c4)): 170 nM | IC50 (HCT-116 cell line; second HCT-116 column (c5)): 3900 nM | Ki (CDK2/Cyclin A): < 1 nM

Nc1nc(NC2CCN(Cc3ccccc3)CC2)sc1C(=O)c1c(F)cccc1F [Example A3, 1-[4-Amino-2-(1-benzyl-piperidin-4-ylamino)-thiazol-5-yl]-1-(2,6-difluoro-phenyl)-methanone]
Ki [1]: 130 nM | IC50 (HCT-116 cell line; first HCT-116 column (c4)): 1700 nM | IC50 (HCT-116 cell line; second HCT-116 column (c5)): 3100 nM | Ki (CDK2/Cyclin A): 490 nM

C[C@@H]1CN(Cc2ccc(S(=O)(=O)N3CCC(Nc4nc(N)c(C(=O)c5c(F)cccc5F)s4)CC3)cc2)C[C@H](C)N1 [Example J10, 1-{4-Amino-2-{1-[4-(3,5-dimethyl-piperazin-1-ylmethyl)-benzenesulfonyl]-piperidin-4-ylamino}-thiazol-5-yl)-1-(2,6-difluoro-phenyl)-methanone Hydrochloride Salt.]
Ki [1]: 0.39 nM | IC50 (HCT-116 cell line; first HCT-116 column (c4)): 160 nM | IC50 (HCT-116 cell line; second HCT-116 column (c5)): 2900 nM | Ki (CDK2/Cyclin A): 1.7 nM

CC(=O)OC(C(=O)N1CCC(Nc2nc(N)c(C(=O)c3c(F)cccc3F)s2)CC1)c1ccccc1 (centres unmarked) [Example Q40]
CDK4 % Inhibition at 0.03 μM ([1]; 0.03 μM compound, Table 4): 7% | HCT-116 % Inhibition at 0.1 μM (HCT-116 cell line; [2]): 0% | HCT-116 % Inhibition at 0.25 μM (HCT-116 cell line; HCT-116, Table 4): 20% | CDK2 % Inhibition at 0.03 μM (CDK2/Cyclin A; 0.03 μM compound, Table 4): −5%

Nc1nc(NC2CCN(C(=O)/C=C/c3ccncc3)CC2)sc1C(=O)c1c(F)cccc1F [Example D6, 1-{[4-Amino-5-(2,6-difluoro-benzoyl)-thiazol-2-ylamino]-piperidin-1-yl)3-pyridin-4-yl-prop-2(E)-enone]
Ki [1]: 67 nM | IC50 (HCT-116 cell line; first HCT-116 column (c4)): 1900 nM | IC50 (HCT-116 cell line; second HCT-116 column (c5)): 3900 nM | Ki (CDK2/Cyclin A): 160 nM

Nc1nc(NC2CCN(S(=O)(=O)CCCn3ccnc3)CC2)sc1C(=O)c1c(F)cccc1F [Example K2]
Ki [1]: 4.7 nM | IC50 (HCT-116 cell line; first HCT-116 column (c4)): 2300 nM | IC50 (HCT-116 cell line; second HCT-116 column (c5)): > 5000 nM | Ki (CDK2/Cyclin A): 6.3 nM

Nc1nc(NC2CCN(C(=O)c3ccccc3F)CC2)sc1C(=O)c1c(F)cccc1F [Example Q11]
CDK4 % Inhibition at 0.03 μM ([1]; 0.03 μM compound, Table 4): 57% | HCT-116 % Inhibition at 0.1 μM (HCT-116 cell line; [2]): 7% | HCT-116 % Inhibition at 0.25 μM (HCT-116 cell line; HCT-116, Table 4): 43% | CDK2 % Inhibition at 0.03 μM (CDK2/Cyclin A; 0.03 μM compound, Table 4): 30%

CC(C)(C)NC(=O)N1CCC(Nc2nc(N)c(C(=O)c3c(F)cccc3F)s2)CC1 [Example O27]
CDK4 % Inhibition at 0.03 μM ([1]; 0.03 μM compound, Table 2): 9% | HCT-116 % Inhibition at 0.25 μM (HCT-116 cell line; HCT-116, Table 2): 24% | CDK2 % Inhibition At 0.03 μM (CDK2/Cyclin A; 0.03 μM compound): 38%
